Assay results from patent US20150174273A1, “IMAGING AND THERAPEUTIC METHODS FOR TREATING PARATHYROID TUMORS” (EMORY UNIVERSITY, priority 2012, published 2015).

Legend:
[1] = tested on: FRs on freshly excised, non-cultured human PT adenoma cells; test: 99mTc-EC20 uptake by PT adenoma cell slurry with or without cold folate block; type: cell-based; settings: for 99mTc-EC20 uptake, not blocked: absence of cold folate; for 99mTc-EC20 uptake, blocked: pre-incubation with cold folate (200 μM)
Experimental: Some aliquots of cells were blocked by pre-incubation with cold folate (FA) (yellow bars).

[2] = tested on: primary human parathyroid cells; test: 18F FACBC uptake assay; type: cell-based; settings: preliminary experiments
Text: BCH is L type transporter inhibitor (2-amino-2-norboranecarboxylic acid), MeAlB is an A type inhibitor (2-[methylamine]isobutric acid), ACS is a multiple amino acid transporter inhibitor (L-alanine, L-cystine, L-serine).
In certain embodiments, the disclosure contemplates methods of ^18F-FACBC Imaging. […] See McConathy et al., Appl Radiat Isot. 2003; 58(6):657-66, hereby incorporated by reference. Parathormone is a peptide hormone, and the bioactive conformation includes a long helical dimer containing leucine residues. […] It is contemplated that parathyroid cells concentrate Anti-^18F-FACBC, and thus Anti-^18F-FACBC can be used as an imaging probe for PET imaging.

[3] = in vivo; cited from earlier work

## [NH-][C@@H](CNC(=O)CC[C@@H](NC(=O)c1ccc(NCc2cnc3nc(N)[nH]c(=O)c3n2)cc1)C(=O)O)C(=O)[N-][C@@H](CC(=O)O)C(=O)[N-][C@@H](C[S-])C(=O)O.[O]=[Tc+4] [99mTc-EC20]
[1]; 20 μl PT adenoma cell slurry
  99mTc-EC20 uptake, not blocked: 3.4±0.4 % dose/20 μl tissue prep
  99mTc-EC20 uptake, blocked: 1.9±0.2 % dose/20 μl tissue prep
[1]; 70 μl PT adenoma cell slurry
  99mTc-EC20 uptake, not blocked: 10.9±0.9 % dose/70 μl tissue prep
  99mTc-EC20 uptake, blocked: 5.7±0.3 % dose/70 μl tissue prep

## NC1(C(=O)O)CC([18F])C1 (stereo not drawn) [Anti-^18F-FACBC, anti-1-amino-^18F-flurocyclobutane-1 carboxylic acid]
[2]
  uptake of Anti-18F-FACBC by primary human parathyroid cells: significant specific uptake
[3]
  pancreatic concentration: high pancreatic concentration
  renal excretion: low renal excretion
